± gives the expanded uncertainty stated by the source.
Details: 101.33 kPa, Liquid; for speed of sound: Sing-around technique in a fixed-path interferometer; for mass density: Vibrating tube method

| SMILES | speed of sound (288.15 K) | mass density (288.15 K) | speed of sound (293.15 K) | mass density (293.15 K) | speed of sound (298.15 K) | mass density (298.15 K) | speed of sound (303.15 K) | mass density (303.15 K) | speed of sound (308.15 K) | mass density (308.15 K) | speed of sound (313.15 K) | mass density (313.15 K) | speed of sound (318.15 K) | mass density (318.15 K) |
| --- | --- | --- | --- | --- | --- | --- | --- | --- | --- | --- | --- | --- | --- | --- |
| CCCCCCn1cc[n+](C)c1.F[P-](F)(F)(F)(F)F [1-hexyl-3-methylimidazolium hexafluorophosphate] | 1449.1 ± 1.2 m/s | 1302.74 ± 0.49 kg/m3 | 1434.1 ± 1.2 m/s | 1298.71 ± 0.48 kg/m3 | 1420.3 ± 1.2 m/s | 1294.69 ± 0.48 kg/m3 | 1407.3 ± 1.2 m/s | 1290.66 ± 0.48 kg/m3 | 1394.9 ± 1.2 m/s | 1286.64 ± 0.47 kg/m3 | 1383 ± 1.2 m/s | 1282.63 ± 0.47 kg/m3 | 1371.5 ± 1.2 m/s | 1278.72 ± 0.47 kg/m3 |
| CCCCCCn1cc[n+](C)c1.F[B-](F)(F)F [1-hexyl-3-methylimidazolium tetrafluoroborate] | 1548.8 ± 1.2 m/s | 1155.32 ± 0.36 kg/m3 | 1535 ± 1.2 m/s | 1151.79 ± 0.35 kg/m3 | 1521.9 ± 1.2 m/s | 1148.26 ± 0.35 kg/m3 | 1509.2 ± 1.2 m/s | 1144.74 ± 0.35 kg/m3 | 1497 ± 1.2 m/s | 1141.23 ± 0.34 kg/m3 | 1485 ± 1.2 m/s | 1137.83 ± 0.34 kg/m3 | 1473.3 ± 1.2 m/s | 1134.43 ± 0.34 kg/m3 |
| COCCO [2-methoxyethan-1-ol] | 1376.5 ± 0.85 m/s | 969.374 ± 0.091 kg/m3 | 1359 ± 0.85 m/s | 964.809 ± 0.092 kg/m3 | 1341.7 ± 0.84 m/s | 960.222 ± 0.094 kg/m3 | 1324.5 ± 0.84 m/s | 955.615 ± 0.095 kg/m3 | 1307.1 ± 0.83 m/s | 950.971 ± 0.097 kg/m3 | 1290 ± 0.83 m/s | 946.306 ± 0.098 kg/m3 | 1272.8 ± 0.82 m/s | 941.609 ± 0.099 kg/m3 |
| CCCCCCn1cc[n+](C)c1.[Br-] [3-hexyl-1-methyl-1H-imidazolium bromide] | 1639.8 ± 1.3 m/s | 1231.03 ± 0.42 kg/m3 | 1610.6 ± 1.3 m/s | 1227.49 ± 0.42 kg/m3 | 1587.5 ± 1.3 m/s | 1223.82 ± 0.42 kg/m3 | 1568.1 ± 1.3 m/s | 1220.47 ± 0.41 kg/m3 | 1551.2 ± 1.3 m/s | 1216.79 ± 0.41 kg/m3 | 1533.5 ± 1.2 m/s | 1213.28 ± 0.41 kg/m3 | 1517.8 ± 1.2 m/s | 1209.94 ± 0.4 kg/m3 |
